One assay relates to melon aphids. Nature of the assay: Melon aphid whole plant spray with cinnamaldehyde and saponin. The note with it: whole plant sprayed to drip. Type of assay: in vivo, Aphis gossypii Glover. Here is the method: Whole nonflowering potted chrysanthemum plants were used to assay melon aphids. Two plants were treated for each treatment and two leaves, one from the top of the plant and one from the bottom of the plant, were sampled to determine the number of living and dead melon aphids. Three treatments were applied: 1.0% CNMA plus 0.5% saponin, 0.5% CNMA plus 0.25% saponin, and 0.5% saponin only. The whole plants were sprayed to “drip” on both the top and bottom sides of leaves. Results are presented as the proportion of aphids found dead. Results were as follows: control plant (0.5% saponin only) 14.8% ±4.5; 0.5% CNMA 48.3±16.1; 1.0% CNMA 72.0±11.2.

Assay [1] relates to adult Aedes aegypti mosquitos. Nature of the assay: Mosquito adulticide treated filter paper test. Type of assay: in vivo. Here is the method:
The toxicity of the formulation for mosquitos was determined using adult Aedes aegypti mosquitos from the University of California Mosquito Control Research Laboratory at the Kearney Agricultural Center. The experiments were performed as double blind studies.
One ml test formulation was pipetted onto 11 cm #2 Whatman filter paper circle cut to fit shell vials (84 mm×23 mm) which was air dried at room temperature for two hours and placed in a shell vial (84 mm×23 mm). Twenty unblooded adult female mosquitos approximately four days of age were aspirated using gentle suction into each shell vial. The open end of the vial was covered with 1 mm nylon mesh and filter paper cut to fit for complete coverage from an 11 cm #2 Whatman filter paper circle. The vials were placed in a polyethylene mosquito bag (46 cm×20 cm) with a wet paper towel inside and loosely sealed. The bag was gently inflated by gently blowing in air and placed in an incubator at 22° C. for 24 hours with a day light cycle (14 hrs light; 10 hrs dark). Untreated paper and paper treated with H2O were used as controls. Mortality was determined by counting the number of dead mosquitos.
The efficacy of various concentrations of cinnamic aldehyde in a formulation of 2% Tween 80, 6% NaHCO3 was tested, using concentrations of cinnamic aldehyde ranging from 25,000 ppm to 10 ppm with and without the addition of saponin, 1:60 dilution of a 10° Brix solution. At concentrations down to 100 ppm added to the filter paper, 100% of the mosquitos were killed. At 10 ppm added to the filer paper, 78% of the mosquitos were killed in the absence of saponin, but only 5% with saponin 14% of mosquitos were killed with the addition of 2% Tween 80 and 6% NaHCO3 alone to the filter paper and 50% with the further addition of a 1:60 dilution 10° Brix saponin. The percent mortality is the average of three replications, with corrections for control mortality. Malathion was used as a positive control.

Assay [2] has as its system Adult male cockroaches (Dictyoptera; Blattelidae). Nature of the assay: German cockroach topical application bioassay. The note with it: 2% (20,000 ppm) in aqueous vehicle (2% Tween 80, 6% NaHCO3); 5 ml spray; within five minutes. The class given is in vivo, German cockroaches. Here is the method: Adult male cockroaches (Dictyoptera; Blattelidae) were used to evaluate insecticidal activity of cinnamic aldehyde and/or coniferyl aldehyde by a topical application method.
Twenty cockroaches were placed in stainless steel pails (20 liter) with lids. After one week provisioned with food, water and harborage, they were sprayed with 5 ml of a test formulation at arm's length (approximately 1 meter) using a Gilmour spray bottle. The number of dead or moribund cockroaches at 5 minutes, 30 minutes, 1 hour and 12 hours after treatment was counted and compared to those untreated (diluent only). Raid (active ingredients: permethrin, pyrethrins and PBO) was used as a positive control. Within five minutes, all cockroaches treated with 2% cinnamic aldehyde (20,000 ppm) in aqueous vehicle (2% Tween 80, 6% NaHCO3) were dead, as were all those treated with Raid. Ten percent of those treated with vehicle alone were dead in 30 minutes, with no further increase in mortality up to 12 hours.

In assay [3] the test system is two-spotted spider mite, Tetranychus urticae. Nature of the assay: Spider mite treated petri dish contact bioassay. Type of assay: in vivo. As to conditions: Tetranychus urticae, 24 hours contact, read-out: Percent Mortality (24 hours). Here is the method:
Activity of cinnamic aldehyde and/or coniferyl aldehyde against two-spotted spider mite, Tetranychus urticae is determined as follows. In a double blind experiment, intersurfaces of petri dishes (60 mm diameter) were treated with 100 μl of a test formulation and allowed to air dry and used within the hour. Twenty adult spider mites were put in each dish and the percent of mortality of the spider mites after 24 hours in contact with the treated dishes Was determined.

The test system of assay [4] is thrips insects (Frankliniella occidentalis). Nature of the assay: Residual activity on treated filter paper against thrips. Type of assay: in vivo. The note with it: rehydrated 24 and 72 hours after spraying, thrips exposed one hour. The method, then:
In the first experiment, two ml of two concentrations of CNMA (0.3 and 1%) were sprayed on filter paper (Whatman). As a negative control, two ml of water was also sprayed on filter paper. Twenty-four hours later, two ml of water were sprayed on treatment and control filter paper, which were then dried for 30 min. Approximately 30 thrips insects (Frankliniella occidentalis) were introduced onto the treated filter papers and the number of F. occidentalis were observed after one hour. Mean mortality was calculated for each treatment. After 72 hours, the treated filter papers were flipped over and only the negative control filter paper and the filter paper treated with 1% CNMA were sprayed with 2 ml of water and allowed to dry for 30 minutes. Approximately 30 thrips were introduced onto the two treated filter papers and after one hour the number of dead F. occidentalis were observed and the mean mortality calculated for each treatment. A similar assay was conducted using AHCNMA. Mean mortality was higher for rehydrated filter papers compared to non-rehydrated filter papers over time.

Setting [5] is: 24 h, read-out: Percent Mortality CNMA (PGXL).

This note sets out measurements from patent US6750256B1, “Use of aromatic aldehydes as insecticides” (Proguard, Inc., priority 1994, dated 2004).

One may read the mortality as the percentage killed.

On to `O=C/C=C/c1ccccc1` [CNMA, cinnamic aldehyde], for which the “proportion of aphids found dead” value in the assay with melon aphids (0.5% CNMA plus […] saponin) amounted to 48.3±16.1%; with melon aphids (1.0% CNMA plus 0.5% saponin), 72.0±11.2%. Moreover, the mosquitos killed in assay [1] (10 ppm added to the filter paper, in the absence of saponin) is reported as 78%; in assay [1] (10 ppm added to the filter paper, with saponin), 5%; in assay [1] (concentrations down to 100 ppm added to the filter paper), 100%. Besides, the mortality at 10 ppm in assay [1] (setting [5]) came to 78%; in assay [3] (10 ppm in 2% Tween 80, 6% NaHCO3), 51.7%. For the same compound, the mortality at 100 ppm was determined as 100% in assay [1] (setting [5]) and 56% in assay [3] (100 ppm in 2% Tween 80, 6% NaHCO3). Besides, the mortality at 2500 ppm in assay [1] (setting [5]) came to 95%; in assay [3] (2,500 ppm in 2% Tween 80, 6% NaHCO3), 78%. The mortality at 5000 ppm is 100% in assay [1] (setting [5]) and 66.4% in assay [3] (5,000 ppm in 2% Tween 80, 6% NaHCO3). Besides, the mortality at 12500 ppm was 100% in assay [1] (setting [5]) and 98.6% in assay [3] (12,500 ppm in 2% Tween 80, 6% NaHCO3). The mortality at 25000 ppm in assay [1] (setting [5]) is 100%; in assay [3] (25,000 ppm in 2% Tween 80, 6% NaHCO3), 99.2%. For the same compound, the cockroaches dead result in assay [2] is “all”. In assay [4], the “residual activity in words” value was “residual activity”.
